According to ChEMBL document CHEMBL3425485 (J Med Chem, 2015):
One block for each compound: values may come before it. Active and inactive are the calls of the source. No cut-off for these calls is given here.

Experiments:
[1] = Total plasma clearance in iv dosed rat; assay type: ADME, organism-based
Cytochrome P450 1A1 = target: T1, Cytochrome P450 1A1 (Homo sapiens, UniProt P04798); assay: Drug metabolism assessed as recombinant CYP1A1 (unknown origin)-mediated compound intrinsic clearance measured per mg of protein; assay type: ADME; details: recombinant enzyme
T1 sequence (P04798 whole entry): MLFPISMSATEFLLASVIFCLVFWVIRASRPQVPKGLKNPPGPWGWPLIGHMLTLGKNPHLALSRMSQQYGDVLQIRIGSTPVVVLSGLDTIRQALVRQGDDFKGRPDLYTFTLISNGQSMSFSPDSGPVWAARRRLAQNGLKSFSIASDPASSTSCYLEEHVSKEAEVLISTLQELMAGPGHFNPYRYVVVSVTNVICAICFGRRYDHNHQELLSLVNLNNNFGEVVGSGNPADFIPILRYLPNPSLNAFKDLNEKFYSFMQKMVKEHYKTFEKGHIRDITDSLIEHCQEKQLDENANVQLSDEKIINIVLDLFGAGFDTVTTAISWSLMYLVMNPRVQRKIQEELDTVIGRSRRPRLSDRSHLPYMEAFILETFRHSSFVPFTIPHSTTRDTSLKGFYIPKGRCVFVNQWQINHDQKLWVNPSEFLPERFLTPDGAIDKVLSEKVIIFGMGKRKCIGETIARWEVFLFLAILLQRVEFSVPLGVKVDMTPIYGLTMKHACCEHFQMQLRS

HeLa [2] = assay: Selectivity for BRCA1 shRNA-transfected human HeLa cells over wild type human HeLa cells
[3] = Drug metabolism in rat lung microsomes assessed as compound turnover; assay type: ADME
[4] = Drug metabolism in rat kidney microsomes assessed as compound turnover; assay type: ADME
[5] = Intrinsic clearance in human liver microsomes measured per mg of protein
[6] = target: Poly [ADP-ribose] polymerase 1 (Homo sapiens, UniProt P09874)
Chain of Poly [ADP-ribose] polymerase 1 (P09874 whole entry): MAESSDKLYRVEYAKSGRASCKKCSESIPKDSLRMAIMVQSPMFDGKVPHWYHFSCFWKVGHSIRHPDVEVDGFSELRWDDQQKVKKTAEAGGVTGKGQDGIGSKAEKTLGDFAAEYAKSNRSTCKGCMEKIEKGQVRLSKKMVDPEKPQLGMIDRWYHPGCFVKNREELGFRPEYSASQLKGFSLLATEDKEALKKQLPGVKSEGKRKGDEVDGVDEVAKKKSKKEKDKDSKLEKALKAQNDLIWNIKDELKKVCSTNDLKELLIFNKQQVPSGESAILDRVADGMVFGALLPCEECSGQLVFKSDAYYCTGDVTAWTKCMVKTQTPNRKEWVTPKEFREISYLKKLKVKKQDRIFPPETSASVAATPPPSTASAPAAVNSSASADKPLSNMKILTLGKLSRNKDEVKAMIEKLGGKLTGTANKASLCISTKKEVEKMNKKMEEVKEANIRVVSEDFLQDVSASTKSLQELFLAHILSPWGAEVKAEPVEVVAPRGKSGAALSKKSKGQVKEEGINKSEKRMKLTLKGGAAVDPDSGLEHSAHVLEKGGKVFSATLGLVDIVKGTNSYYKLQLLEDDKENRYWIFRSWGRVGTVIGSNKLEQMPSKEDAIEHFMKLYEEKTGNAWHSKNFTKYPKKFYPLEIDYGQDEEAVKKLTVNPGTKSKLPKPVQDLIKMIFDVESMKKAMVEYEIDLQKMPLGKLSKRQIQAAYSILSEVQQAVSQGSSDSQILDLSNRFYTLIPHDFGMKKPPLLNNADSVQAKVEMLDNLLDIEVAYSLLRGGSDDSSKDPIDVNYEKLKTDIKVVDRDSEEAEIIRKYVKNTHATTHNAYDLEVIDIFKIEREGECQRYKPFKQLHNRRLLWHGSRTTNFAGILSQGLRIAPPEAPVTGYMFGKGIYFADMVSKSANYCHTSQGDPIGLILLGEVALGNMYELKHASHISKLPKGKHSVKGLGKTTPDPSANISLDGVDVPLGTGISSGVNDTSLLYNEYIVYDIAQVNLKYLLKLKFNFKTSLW
Description: Inhibition of PARP1 (unknown origin)

[7] = Plasma clearance in rat; assay type: ADME
Rattus norvegicus = species on record: Rattus norvegicus; assay: Terminal half life in rat; assay type: ADME, organism-based; details: in vivo
HeLa [8] = assay: Cytotoxicity against human HeLa cells transfected with BRCA1 shRNA assessed as reduction of cell viability after 5 to 7 days by CellTiter-Blue assay; assay type: functional
[9] = Volume of distribution at steady state in rat; details: in vivo
[10] = Oral bioavailability in dog; details: in vivo
[11] = Volume of distribution at steady state in dog; details: in vivo
[12] = Terminal half life in dog; details: in vivo
[13] = Drug metabolism in iv dosed bile cannulated dog assessed as parent compound recovery
[14] = Drug metabolism in iv dosed bile cannulated rat assessed as parent compound recovery
[15] = Cytotoxicity against human SUM1315MO2 cells carrying BRCA1 mutant assessed as inhibition of cell proliferation after 12 days by CellTiter-Blue assay; details: SUM1315MO2, 288 h
[16] = Plasma concentration in CD-1 mouse at 50 mg/kg, po after 24 hrs
[17] = Fraction unbound in mouse plasma
[18] = Fraction unbound in human plasma
[19] = Antitumor activity against BRCA2-deficient human Capan1 cells xenografted in immunocompromised mouse assessed as tumor growth inhibition at 80 mg/kg, po qd for 2 to 4 weeks; details: CAPAN-1, po, read-out: TGI
Plasma [20] = assay: Plasma trough concentration in human at 300 mg/day; details: read-out: Cmin
Plasma [21] = assay: Plasma trough concentration in human at 40 mg/day; details: read-out: Cmin
[22] = target: T2, PARP 1, 2 and 3 (Homo sapiens) (UniProt P09874+Q9Y6F1+Q9UGN5); details: HeLa
Description: Inhibition of PARP in human HeLa cells assessed as inhibition of hydrogen peroxide-induced PARylation by cell-based assay

[23] = target: T2, PARP 1, 2 and 3 (Homo sapiens); details: A2780
Description: Inhibition of PARP in human A2780 cells assessed as inhibition of hydrogen peroxide-induced PARylation by cell-based assay

[24] = target: T2, PARP 1, 2 and 3 (Homo sapiens); details: CAPAN-1
Description: Inhibition of PARP in BRCA2-deficient human CAPAN-1 cells assessed as inhibition of hydrogen peroxide-induced PARylation by cell-based assay

MDA-MB-436 [25] = details: Homo sapiens, 50 mg/kg
Description: Antitumor activity against human MDA-MB-436 cells harboring BRCA1 mutant xenografted in immunocompromised mouse assessed as tumor growth inhibition at 50 mg/kg, po administered daily

MDA-MB-436 [26] = details: Homo sapiens, 80 mg/kg
Description: Antitumor activity against human MDA-MB-436 cells harboring BRCA1 mutant xenografted in immunocompromised mouse assessed as tumor growth inhibition at 80 mg/kg, po qd for 1 to 2 weeks

[27] = target: T2, PARP 1, 2 and 3 (Homo sapiens); details: MDA-MB-436, 50 to 100 mg/kg
Description: Inhibition of PARP activity in tumor of immunocompromised mouse xenografted with human MDA-MB-436 cells harboring BRCA1 mutant assessed as incorporation of [3H]NAD in PAR chains in response to nicked DNA at 50 to 100 mg/kg, po measured after 24 hrs

[28] = target: T2, PARP 1, 2 and 3 (Homo sapiens); details: CAPAN-1, 50 to 100 mg/kg
Description: Inhibition of PARP activity in tumor of immunocompromised mouse xenografted with BRCA2-deficient human Capan1 cells assessed as incorporation of [3H]NAD in PAR chains in response to nicked DNA at 50 to 100 mg/kg, po measured after 24 hrs

HeLa [29] = assay: cells; details: Homo sapiens
Description: Cytotoxicity against wild type human HeLa cells assessed as inhibition of cell proliferation after 5 to 7 days by CellTiter-Blue assay

A549 [30] = assay: cells; details: Homo sapiens
Description: Cytotoxicity against wild type human A549 cells assessed as inhibition of cell proliferation after 5 to 7 days by CellTiter-Blue assay

A549 [31] = assay: cells; details: Homo sapiens; remark: listed apart in the source
Description: Cytotoxicity against human A549 cells transfected with BRCA2 shRNA assessed as inhibition of cell proliferation after 5 to 7 days by CellTiter-Blue assay

cells [32] = details: Homo sapiens, UWB1289
Description: Cytotoxicity against human UWB1.289 cells carrying BRCA1 mutant assessed as inhibition of cell proliferation after 5 to 7 days by CellTiter-Blue assay

cells [33] = details: Homo sapiens, SUM149PT
Description: Cytotoxicity against human SUM149PT cells carrying BRCA1 mutant assessed as inhibition of cell proliferation after 5 to 7 days by CellTiter-Blue assay

DoTc2-4510 = assay: cells; details: Homo sapiens
Description: Cytotoxicity against human DoTc2-4510 cells carrying BRCA2 mutant assessed as inhibition of cell proliferation after 5 to 7 days by CellTiter-Blue assay

in vivo = details: dog, plasma
in vitro [34] = details: human, UWB1.289 cells expressing BRCA1
Description: Cytotoxicity against human UWB1.289 cells expressing BRCA1 assessed as inhibition of cell proliferation after 5 to 7 days by CellTiter-Blue assay

in vitro [35] = details: human, BT20 cells
Description: Cytotoxicity against human BT20 cells assessed as inhibition of cell proliferation after 5 to 7 days by CellTiter-Blue assay

clearance [1]: 30 mL/min/kg
CL (Cytochrome P450 1A1): 0.4 µL/min
Structure (SMILES): CNC(C)(C)c1ccc(-n2cc3cccc(C(N)=O)c3n2)cc1

Drug metabolism [3]: metabolite_detected
Drug metabolism [4]: metabolite_detected
CL (Cytochrome P450 1A1): 8.7 µL/min
Structure (SMILES): CN(C)Cc1ccc(-n2cc3cccc(C(N)=O)c3n2)cc1
Selectivity ratio (HeLa [2]): >10

CL (Cytochrome P450 1A1): 7 µL/min
microsomal CLint [5]: 4 µL/min/mg
Structure (SMILES): NC(=O)c1cccc2cn(-c3ccc([C@H]4CCCNC4)cc3)nc12

clearance [1]: 30 mL/min/kg
CL (Cytochrome P450 1A1): 0.7 µL/min
Structure (SMILES): NC(=O)c1cccc2cn(-c3ccc4c(c3)CCNC4)nc12

CL (Cytochrome P450 1A1): 22 µL/min
Structure (SMILES): NC(=O)c1cccc2cn(-c3ccc(C4CCCN4)cc3)nc12 (stereo not drawn)

CL (Cytochrome P450 1A1): 11 µL/min
Structure (SMILES): NC(=O)c1cccc2cn(-c3ccc(C4CCCNC4)cc3)nc12 (stereo not drawn)

IC50 [6]: 3.8 nM
Structure (SMILES): O=C(O)c1cccc2cn(-c3ccc([C@@H]4CCCNC4)cc3)nc12

clearance [7]: 30 mL/min/kg
Structure (SMILES): NC(=O)c1cccc2cn(-c3ccccc3)nc12

CL (Cytochrome P450 1A1): 6 µL/min
Structure (SMILES): CNCc1ccc(-n2cc3cccc(C(N)=O)c3n2)cc1

beta t1/2 (Rattus norvegicus): 3.4 h
CL (Cytochrome P450 1A1): 16 µL/min
microsomal CLint [5]: 3 µL/min/mg
Vd [9]: 6.9 L/kg
bioavailability [10]: 57%
Vd [11]: 12.3 L/kg
half-life [12]: 342 min
dose excreted [13]: < 5%
dose excreted [14]: 45%
concentration at 24 h [16]: 100 nM
fraction unbound [17]: 0.26
fraction unbound [18]: 0.16
concentration (Plasma [20]): > 2000 nM
concentration (Plasma [21]): 288 nM
IC90 [22]: 46 nM
IC90 [23]: 52 nM
IC90 [24]: 50 nM
inhibition [27]: > 90%
inhibition [28]: > 90%
clearance (in vivo): 31 mL/min/kg
Structure (SMILES): NC(=O)c1cccc2cn(-c3ccc([C@@H]4CCCNC4)cc3)nc12 [NIRAPARIB]
CC50 (HeLa [8]): 34 nM
CC50 [15]: 20 nM
inhibition in vivo at 80 mg/kg [19]: 60%
inhibition (MDA-MB-436 [25]): Active
TGI (MDA-MB-436 [26]): Active
CC50 (HeLa [29]): 852 nM
CC50 (A549 [30]): 1760 nM
CC50 (A549 [31]): 11 nM
CC50 (cells [32]): 56 nM
CC50 (cells [33]): 24 nM
CC50 (DoTc2-4510): 23 nM
CC50 (in vitro [34]): 975 nM
CC50 (in vitro [35]): 2200 nM
